Results taken from patent US6555532B1, “Method of treating alopecia” (North Carolina State University, priority 1996, dated 2003).

How the values were obtained:
[1] = test system: hair growth on clipped dorsal skin of female CD-1 mice; assay: Hair regrowth on clipped dorsal skin of mice after twice-weekly topical treatment; assay type: in vivo, mouse; conditions: for effect on hair growth (figure legend): 10 nmol in 200 μL acetone applied topically to clipped hair area, mice; for mice demonstrating partial patchy hair regrowth: 10 nmol topically twice weekly from 6th week; for hair growth in pre-existing anagen follicles: 10 week old mice in anagen phase, twice weekly topical
Method: Female CD-1 mice, 4, 5, or 9 weeks of age, were purchased from Charles River Laboratories, Raleigh, N.C. Mice were kept in an animal facility at least 1 week prior to use and were fed rodent chow (Agway Food, Granville Milling and Co., Creedmoor, N.C.) and water ad libitum. The mice were kept on corn cob bedding and placed on a 12 hour light/dark cycle. Female CD-1 mice were clipped on the dorsal region (approximately 4×2.5 cm area) with electric clippers. The mice were then treated twice weekly on the clipped dorsal surface with either (a) 10 nmol 17-β-estradiol in 200 μl acetone or (b) acetone alone. For the studies with the estrogen receptor antagonist, ICI 182,780 was dissolved in acetone and 200 μl was topically applied twice weekly. Mice were treated with the estrogen receptor antagonist ICI 182,780 as provided in Example 1. Twice-weekly treatment of clipped dorsal skin was begun when the mice were 6 weeks of age, with either (a) 10 nmol ICI 182,780 in acetone or (b) acetone alone. […] In order to determine if 17-β-estradiol could influence hair growth, six week old CD-1 female mice were clipped on the dorsal surface with electric clippers and then treated twice weekly from the 6th week of age to the 16th week of age with topical applications of either (a) 10 nmol 17-β-estradiol or (b) acetone vehicle alone. […] In order to determine if 17-β-estradiol could block hair growth in pre-existing anagen follicles, 10 week old mice in the anagen phase of the hair cycle were treated twice weekly with 17-β-estradiol applied topically to clipped dorsal skin.

[2] = test system: hair follicles of female CD-1 mice; assay: Histological analysis of skin to determine the phase of the hair cycle; assay type: in vivo, mouse
Method: Female CD-1 mice, 4, 5, or 9 weeks of age, were purchased from Charles River Laboratories, Raleigh, N.C. Mice were kept in an animal facility at least 1 week prior to use and were fed rodent chow (Agway Food, Granville Milling and Co., Creedmoor, N.C.) and water ad libitum. The mice were kept on corn cob bedding and placed on a 12 hour light/dark cycle. Female CD-1 mice were clipped on the dorsal region (approximately 4×2.5 cm area) with electric clippers. The mice were then treated twice weekly on the clipped dorsal surface with either (a) 10 nmol 17-β-estradiol in 200 μl acetone or (b) acetone alone. For the studies with the estrogen receptor antagonist, ICI 182,780 was dissolved in acetone and 200 μl was topically applied twice weekly. […] To determine the effect of 17-β-estradiol on the hair follicle cycle, mice were treated with 17-β-estradiol or acetone alone twice weekly from the 4th week of age to the 15th week of age. Every week, histological analysis of the skin from 3 mice from each group was conducted to determine the phase of the hair cycle. Representative skin histology sections from acetone- and 17-β-estradiol-treated mice at 7, 9, and 11 weeks of age are shown in FIGS. 6A-6F. As expected, at 7 weeks of age all follicles were in telogen in both the 17-β-estradiol and the acetone-treated mice.

Row | Compound | effect on hair growth (figure legend) [1] | effect on dorsal hair regrowth ([1]; 10 nmol topically twice weekly from 6th to 16th week of age) | full hair regrowth ([1]; 10 nmol topically twice weekly from 6th to 16th week of age, by 16 weeks of age, 100% of acetone mice regrown by 13 weeks) | partial patchy hair regrowth, share of total clipped area ([1]; 10 nmol topically twice weekly from 6th to 16th week of age, some of the treated mice) | mice demonstrating partial patchy hair regrowth ([1]; at 12 weeks of age) | mice demonstrating partial patchy hair regrowth ([1]; by 15 weeks) | hair growth in pre-existing anagen follicles ([1]; treatment continued for 10 weeks) | hair growth in pre-existing anagen follicles ([1]; within two weeks, all acetone mice developed full coat) | hair follicle phase ([2]; 17-β-estradiol twice weekly from 4th week of age, 15 weeks of age, termination of experiment) | hair follicle phase ([2]; 17-β-estradiol twice weekly from 4th week of age, at 7 weeks of age, acetone mice also in telogen) | hair follicle phase ([2]; 17-β-estradiol twice weekly from 4th week of age, by 9 weeks of age, acetone mice entered anagen) | hair follicle phase ([2]; 17-β-estradiol twice weekly from 4th week of age, by 11 weeks of age, acetone mice in mid to late anagen) | mice demonstrating full hair regrowth ([1]; 10 nmol in acetone topically twice weekly from 6 weeks of age, by 9 weeks of age, no hair growth in acetone-treated mice) | mice that developed a full coat of hair ([1]; 10 nmol in acetone topically twice weekly from 6 weeks of age, by 10 weeks of age, 40% of acetone-treated mice) | hair follicle phase ([2]; 10 nmol ICI 182,780 twice weekly from 6 weeks, at 7 weeks of age, acetone mice in second telogen) | hair follicle phase ([2]; 10 nmol ICI 182,780 twice weekly from 6 weeks, at eleven weeks of age, control mice in mid to late anagen) | hair follicle phase ([2]; 10 nmol ICI 182,780 twice weekly from 6 weeks, by eight weeks of age, acetone mice in telogen) | effect on duration of anagen ([2]; conclusion from histology at eleven weeks of age)
1 | C[C@]12CC[C@@H]3c4ccc(O)cc4CC[C@H]3[C@@H]1CC[C@@H]2O [17-β-estradiol] | blocks hair regrowth | potent inhibitory effect | did not demonstrate any full hair regrowth | less than 10% | 20% | 40% | no hair growth was apparent | no longer growing hair | still arrested in telogen | telogen | remained in telogen | remained in telogen | – | – | – | – | – | –
2 | C[C@]12CC[C@@H]3c4ccc(O)cc4C[C@@H](CCCCCCCCC[S+]([O-])CCCC(F)(F)C(F)(F)F)[C@H]3[C@@H]1CC[C@@H]2O (stereo partly drawn) [ICI 182,780, 7α-[9-(4,4,5,5,5,-pentafluoropentylsulfinyl)nonyl]estra-1,3,5(10)-triene-3,17β-diol] | causes hair growth during the second telogen phase | – | – | – | – | – | – | – | – | – | – | – | 60% | all | early to mid anagen | entered telogen | mid to late anagen | does not prolong anagen
